Legend:
[1] = Oral bioavailability in Sprague-Dawley rat at 1 mg/kg; assay type: ADME, organism-based; conditions: in vivo
[2] = Volume of distribution at steady state in Sprague-Dawley rat at 1 mg/kg, iv; assay type: ADME, organism-based; parameters: dose 1 mg/kg, route intravenous; conditions: in vivo, read-out: Vdss
[3] = Plasma concentration in Duncan Hartley guinea pig at 10 mg/kg, po; assay type: ADME, organism-based, Cavia porcellus; parameters: dose 10 mg/kg, route oral; conditions: in vivo
[4] = Mean residence time in Sprague-Dawley rat at 1 mg/kg, po; assay type: ADME, organism-based; parameters: dose 1 mg/kg, route oral; conditions: in vivo

Row | Compound | bioavailability [1] [%] | Vd [2] [L/kg] | concentration [3] [nM] | MRT [4] [h]
1 | O=C(N[C@H]1CCC[C@H](CO)C1)C1CCN(c2nc3cc(Cl)c(C(F)(F)F)cc3o2)CC1 | 42 | 14 | 1600 | 7.22
2 | O=C(N[C@H]1CCC[C@H](CO)C1)C1CCN(c2nc3cc(Cl)c(-c4ccc(Cl)cc4)cc3o2)CC1 | 59 | 3 | 1200 | 4.42
3 | O=C(N[C@H]1CCC[C@H](CO)C1)C1CCN(c2nc3cc(Cl)ccc3o2)CC1 | 66 | 0.72 |  | 0.7
4 | CCOc1ccc(-c2cc3oc(N4CCC(C(=O)N[C@H]5CCC[C@H](CO)C5)CC4)nc3cc2Cl)cc1 | 17 | 2.4 |  | 6.26
5 | O=C(N[C@H]1CCC[C@H](CO)C1)C1CCN(c2nc3cc(Cl)c(-c4ccc(OC(F)(F)F)cc4)cc3o2)CC1 | 86 | 6.4 | 510 | 7.78
6 | CCc1cc2oc(N3CCC(C(=O)N[C@H]4CCC[C@H](CO)C4)CC3)nc2cc1Cl |  | 2.1 |  | 0.44
7 | O=C(N[C@H]1CCC[C@H](CO)C1)C1CCN(c2nc3cc(Cl)c(C(F)F)cc3o2)CC1 |  | 1.4 |  | 0.39
8 | COc1ccc2cc([C@H](C)C(=O)O)ccc2c1 [NAPROXEN] |  |  | 154000 | 
